Results as given in patent US20240058329A1, “OPHTHALMIC COMPOSITION OF RIFAMYCIN, AND USE THEREOF” (BNC KOREA CO., LTD., priority 2020, published 2024).
Like-named read-outs stand apart in the source and are kept apart here. Marks after values point to notes of the source that are not given here.

How the values were obtained:
[1] = Rabbit; 0.5%, 50 μL, 250 μg; Sigurdsson et al. (2007); cited from earlier work
[2] = system: oxygen-induced retinopathy rat models; assay: Neovascularization in retina quantified by capillaries in histology sections; type: in vivo, Sprague-Dawley rat; settings: n = 3, vehicle only control 16.3
Experimental: Oxygen-induced retinopathy rat models were produced according to the protocols of Yanni et al. (2010) and Dorfmann et al. (2008). Sprague-Dawley rat babies (and their nursing mothers) were exposed to a cycling oxygen environment (80% and 21%, about one day for each) for 15 days after starting from the day of birth (Day 0). On Day 15 (P15), the animals were moved to room air. […] An eye drop formulation shown as Example 1 A in Table 1, or a vehicle only was administered to the eyes of the baby rats every day, for 5 days between P15 and P19, in the morning, about the noon, and in the evening. […] On P20, all of the animals were euthanized, and the retina was visualized as histology sections. In those histology sections, capillaries in the retinal tissues in 3 eye balls (AMD 101 topical application, AMD 101 SC injection administration group, and non-induction of retinopathy) or 5 eye balls (control administration group of a vehicle only) were counted, so that neovascularization was quantified. These eye balls were selected from different animals in the above-described administration groups. Representative images of the histology sections are shown (see FIGS. 1A to 1H).

[3] = Retina exposure level of rifampicin after application of topical eye drops (3 or 10 drops), LC/MS; type: in vivo, Sprague-Dawley rats; settings: for Drug amount detected in retina: Rat, 0.25%, present study; for Rifampicin extracted from retina: rat, average of n = 3
Experimental: The remaining two rats received the same application, but 10 drops of the eye drops, in each eye under isoflurane sedation. A single drop contained 5 μL of the above-described formulation, and application of each drug drop was carried out with intervals of 30 minutes. After the eye drop application, the retina was excised from each rat under a dissection microscope. In addition, “non-treated” negative controls were used, and the retina was excised from two rats without performing any treatments on the rats. The retina was placed in a 1.5-ml microcentrifuge tube (1 retina/tube), and was fully washed with DPBS. After completion of the washing procedures, the retinal tissues in the microcentrifuge tube were frozen in dry ice, and were then preserved for quantification by LC/MS analysis.

[4] = 3% rifampicin solution, boric acid buffer
Experimental: In the present example, the pH value was set to be pH 2 to 12, and the concentration of a nonionic surfactant was set to be 0.001% by weight to 50% by weight. As buffer solutions, a boric acid buffer solution, and a phosphoric acid buffer solution and a citric acid buffer solution were used.
A 50 mM phosphoric acid buffer solution, a 50 mM citric acid buffer solution, or a 25 mM boric acid-borax buffer solution (all of which were final concentrations) was prepared, and thereafter, about 0.9% sodium chloride, about 0.1% EDTA, 0.01% benzalkonium chloride (all of which were final concentrations), and various concentrations of nonionic surfactants (Tween 80 or Polyoxyethylene (7) alkyl (sec-C11-15) ethers) were mixed into the solution. […] In the case of using a citric acid buffer solution, the pH value of the mixed solution was adjusted using hydrochloric acid under conditions of pH 2.6 or less. In the case of using boric acid, the pH value was adjusted using hydrochloric acid under conditions of pH 5.7 or less. […] The thus prepared solutions were continuously blended for about 2 hours, and the pH value thereof was measured at 25° C.

Question: For `C[C@@H]1C[C@H]2[C@@H]3CCC4=CC(=O)C=C[C@]4(C)[C@@]3(F)[C@@H](O)C[C@]2(C)[C@@]1(O)C(=O)CO` [Dexamethasone], which “Drug amount detected in retina” value [1] is on record?
Answer: The value was “About 33 ng/1 g of ng/1 g of retinal tissues”.

Question: Which results are given for `CO[C@H]1/C=C/O[C@@]2(C)Oc3c(C)c(O)c4c(O)c(c(/C=N/N5CCN(C)CC5)c(O)c4c3C2=O)NC(=O)/C(C)=C\C=C\[C@H](C)[C@H](O)[C@@H](C)[C@@H](O)[C@@H](C)[C@H](OC(C)=O)[C@@H]1C` [rifampicin]?
Answer: Average numbers of capillaries in high power field per eye ([2]; 0.25% AMD101 topical eye drop (Example 1A), three times a day P15 to P19): 7.78; Average numbers of capillaries in high power field per eye ([2]; 0.5% AMD101 SC injection (Example 6A), 20 mg/Kg once a day P15 to P19): 9.28; Drug amount detected in retina ([3]; 3 drops (15 μL, 37.5 μg)): About 1,288 ng/1 g of ng/1 g of retinal tissues; Drug amount detected in retina ([3]; 10 drops (50 μL, 125 μg)): About 2,939 ng/1 g of ng/1 g of retinal tissues; Rifampicin extracted from retina ([3]; 3 drops (5 μL each, 30 min intervals) of 0.25% rifampicin eye drops (Example 1A) per eye): 1,288* ng/1 g of tissues; Rifampicin extracted from retina ([3]; 10 drops (5 μL each, 30 min intervals) of 0.25% rifampicin eye drops (Example 1A) per eye): 2,939* ng/1 g of tissues; pH at which solubilization of rifampicin does not need addition of a surfactant ([…]): ≥ 8.5; rifampicin concentration whose solubilization did not need addition of a surfactant (pH range of pH 2 to pH 12): ≤ 0.002 % by weight; nonionic surfactant addition by which the composition is solubilized (from relational expression) ([4]; pH 3.0): about 8.2%; nonionic surfactant addition by which the composition is solubilized (from relational expression) ([4]; pH 4.0): about 10.7%
